| melting point | SMILES |
| --- | --- |
| 118 to 120 °C | CCC(C)NCc1nc(-c2ccc(OC)c(OC)c2)c2cc(OC)c(OC)cc2n1 (centres undefined) |
| 141 to 143 °C | COC(=O)c1ccccc1S(=O)(=O)NC(=O)Nc1nc(OC)cc(OC(F)(F)F)n1 |
| 126 to 130 °C | [N-]=[N+]=NC1CC(n2cc(I)c(=O)[nH]c2=O)OC1CO (centres undefined) |
| 173 to 174 °C | NCCNC(=O)c1nc(Cl)c(N)nc1N |
| 161 to 162 °C | O=C1c2ccccc2C(=O)N1OCC=Cc1ccc(Br)cc1 |
| 92 to 93 °C | O=C(OCc1ccccc1)C(O)N1C(=O)C2CC=CCC21 (centres undefined) |
| 112 to 114 °C | CCc1ncccc1NC(=NC#N)NC(NC(=O)Cc1ccc(Cl)cc1)C(C)(C)C (centres undefined) |
| 111 to 112 °C | CCOC(=O)CCn1c(-c2ccccc2)c(-c2ccccc2)n(-c2ccccc2)c1=O |
| 69.4 °C | CC(C)c1c(Cl)nc(Cl)nc1Cl |
| 159 °C | O=[N+]([O-])c1ccc2oc(-c3ccccc3)cc2c1 |
| 118 to 120 °C | O=C(NCCCO)c1ccc(O)cc1 |
| 148 to 150 °C | Cc1noc([C@@H](Cc2ccccc2)NC(=O)[C@@H](Cc2ccc3ccccc3c2)NC(=O)OC(C)(C)C)n1 |
| 255 to 256 °C | COc1cc(C(=O)NS(=O)(=O)c2ccccc2C)ccc1Cc1cccc2ccc(C(N)=O)cc12 |
| 137 to 138 °C | CC(C)Nc1nc2cc(Cl)c(Cl)cc2n1[C@H]1C[C@@H](CO)[C@H](O)[C@@H]1O |
| 139 to 142 °C | Nc1nc(Cl)nc(C2CC2)n1 |
| 241 to 243 °C | CN1C(=O)C2(COc3cc4c(cc32)OCCO4)c2c(NC(=O)c3ccccc3C(F)(F)F)cccc21 (centres undefined) |
| 191 to 194 °C | O=C1C2CC(c3ccc([N+](=O)[O-])cc3)(C2)C(=O)N1CC1CCCCC1 |
| 146 to 147 °C | COc1cc(CCc2ccc(Nc3ccccc3C(=O)O)cc2)cc(OC)c1OC |
| 141 °C | C=CCON(C1=NCCN1)c1c(F)cccc1Br |
| 177 to 180 °C | COc1cccc(Nc2n[nH]c(N)c2C#N)c1 |
| 40 to 42 °C | Cc1cccc(OCC(=O)NCCO[N+](=O)[O-])c1 |
| 148 °C | C/C(=C\c1cc(F)cc(F)c1)C(=O)O |

The next lines start with the molecule.

| SMILES | melting point |
| --- | --- |
| CCCCCCCCCCCCCCCCCCOc1cc(C(=O)N(CC(=O)O)CC(=O)O)cc([N+](=O)[O-])c1 | 110 to 112 °C |
| Fc1ccccc1C1=NCc2n[nH]cc2-c2ccc(Cl)cc21 | 208 to 210 °C |
| Cc1cc(C2=Nn3cc(C(F)(F)F)nc3SC2c2ccc(F)cc2)cc2c1OCC(=O)N2 (centres undefined) | 136 to 138 °C |
| CCCCCN1C(=O)C(CO)(c2ccc3c(c2)OCO3)c2ccccc21 (centres undefined) | 110 to 113 °C |
| FC(F)(F)Oc1cccc(Cn2cnc3c(-c4ccco4)ncnc32)c1 | 133 to 135 °C |
| CC(=O)Nc1ccc(N2CC(CNC(C)=S)OC2=O)cc1F (centres undefined) | 200 to 201 °C |
| OC(CNc1ccccc1)c1cc(C(F)(F)F)nc2c(C(F)(F)F)cccc12 (centres undefined) | 121 to 122 °C |
| NC(=O)CNC(=O)c1ccnc(-c2cccc3cc(Cc4cccc(C(F)(F)F)c4)sc23)c1 | 176 to 177 °C |
| CCC(C)(C)OC(=O)NC(C)(Cc1c[nH]c2ccccc12)C(=O)NCCc1cccs1 (centres undefined) | 95 to 98 °C |
| CCN(c1ccc(SC)cc1[N+](=O)[O-])S(=O)(=O)c1ccc(C)cc1 | 135 to 136 °C |
| CCOC(=O)Cc1cccc(Oc2ccccc2Cl)c1NS(C)(=O)=O | 145 to 149 °C |
| CC(C)(C)[C@H]1CC[C@H](CC2=C(O)C(=O)c3ccccc3C2=O)CC1 | 180 to 182 °C |
| COc1ccccc1N1CCN(CCCOc2ccc(-c3cn4cccnc4n3)cc2)CC1 | 156 to 158 °C |
| CC(=O)Oc1ccccc1C(=O)N[C@@H]1CCCC[C@@H]1O[N+](=O)[O-] (relative stereo) | 143 to 145 °C |
| CC(C)c1cccc2c1CC(C(=O)O)SCC2=O (centres undefined) | 157 to 158 °C |
| CN1C(=O)c2cnc(-c3ccccc3)nc2N(C(=O)CN2CCN(Cc3ccccc3)CC2)c2ccccc21 | 194 °C |
| CN(C(=O)c1ccc2nonc2c1)C1CCOC(O)C1 (centres undefined) | < 90 °C |

Reference: a melting point compilation (Tetko et al.; mined from patent text by program, amines drawn as free bases though some values may be those of a salt)
